# Data taken from PubChem BioAssay (NCI).
#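 In this assay, cells in 96-well plates receive the compound at five concentrations for 48 hours. Endpoints are linearly interpolated between the surrounding concentrations. GI50: concentration for 50% inhibition of growth. At the TGI there is no net growth.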 Where a SMILES comes first, the peptide text is derived from it. [ ]: non-standard residue; d: D form. The star is where a group is joined. ξ: configuration not given here. Boc = CC(C)(C)OC(=O)*; ξV = CC(C)C(N)C(=O)O; OBn = c1ccc(CO*)cc1
# Tests used:
# Assay in all cases: NCI-60 cell line screen, 48 h
# HCT-116 colon = tested on: HCT-116 colon
# SNB-19 CNS = tested on: SNB-19 CNS
# HL-60(TB) leukemia = tested on: HL-60(TB) leukemia
# MOLT-4 leukemia = tested on: MOLT-4 leukemia
# CCRF-CEM leukemia = tested on: CCRF-CEM leukemia
# NCI-H522 lung = tested on: NCI-H522 lung
# NCI-H23 lung = tested on: NCI-H23 lung
# SF-268 CNS = tested on: SF-268 CNS
# EKVX NSCLC = tested on: EKVX NSCLC
# SN12C renal = tested on: SN12C renal
# SF-295 CNS = tested on: SF-295 CNS
# SNB-75 CNS = tested on: SNB-75 CNS
# HS 578T breast = tested on: HS 578T breast
# U251 CNS = tested on: U251 CNS
# T-47D breast = tested on: T-47D breast
# SK-OV-3 ovarian = tested on: SK-OV-3 ovarian
# SW-620 colon = tested on: SW-620 colon
# MDA-MB-435 = tested on: MDA-MB-435
# A549 NSCLC = tested on: A549 NSCLC
# KM12 colon = tested on: KM12 colon
# RXF 393 renal = tested on: RXF 393 renal
# ACHN renal = tested on: ACHN renal
# PC-3 prostate = tested on: PC-3 prostate
# SF-539 CNS = tested on: SF-539 CNS
# NCI-H226 lung = tested on: NCI-H226 lung
# IGROV1 ovarian = tested on: IGROV1 ovarian
# HOP-62 NSCLC = tested on: HOP-62 NSCLC
# 786-0 renal = tested on: 786-0 renal
# MDA-MB-231 breast = tested on: MDA-MB-231 breast
# HT29 colon = tested on: HT29 colon
# HCC-2998 colon = tested on: HCC-2998 colon
# NCI-H460 lung = tested on: NCI-H460 lung
# COLO 205 colon = tested on: COLO 205 colon
# DU-145 prostate = tested on: DU-145 prostate
# K-562 leukemia = tested on: K-562 leukemia
# HCT-15 colon = tested on: HCT-15 colon
# UACC-257 melanoma = tested on: UACC-257 melanoma
# OVCAR-5 ovarian = tested on: OVCAR-5 ovarian
# TK-10 renal = tested on: TK-10 renal
# SK-MEL-2 melanoma = tested on: SK-MEL-2 melanoma
# OVCAR-3 ovarian = tested on: OVCAR-3 ovarian
# HOP-92 NSCLC = tested on: HOP-92 NSCLC
# SK-MEL-5 melanoma = tested on: SK-MEL-5 melanoma
# OVCAR-4 ovarian = tested on: OVCAR-4 ovarian
# MCF7 breast = tested on: MCF7 breast
# SK-MEL-28 melanoma = tested on: SK-MEL-28 melanoma
# OVCAR-8 ovarian = tested on: OVCAR-8 ovarian
# RPMI-8226 leukemia = tested on: RPMI-8226 leukemia
# NCI/ADR-RES ovarian = tested on: NCI/ADR-RES ovarian
# MALME-3M melanoma = tested on: MALME-3M melanoma
# UACC-62 melanoma = tested on: UACC-62 melanoma
# CAKI-1 renal = tested on: CAKI-1 renal
# UO-31 renal = tested on: UO-31 renal
# LOX IMVI melanoma = tested on: LOX IMVI melanoma
# BT-549 breast = tested on: BT-549 breast
smiles,measurement,setting,value
CC(C)C(NC(=O)CNC(=O)OC(C)(C)C)C(=O)NCC(=O)OCc1ccccc1 (stereo not drawn) (Boc-Gly-[ξV]-Gly-OBn),GI50,HCT-116 colon,27.3 µg/mL
same,TGI,HCT-116 colon,98.5 µg/mL
O=c1cc(-c2ccc3c(c2)OCCO3)oc2cc(Cl)ccc12,GI50,SNB-19 CNS,3.62 µM
same,TGI,SNB-19 CNS,> 100 µM
same,GI50,HL-60(TB) leukemia,> 100 µM
same,TGI,HL-60(TB) leukemia,> 100 µM
same,GI50,MOLT-4 leukemia,> 100 µM
same,TGI,MOLT-4 leukemia,> 100 µM
same,GI50,CCRF-CEM leukemia,> 100 µM
same,TGI,CCRF-CEM leukemia,> 100 µM
same,GI50,NCI-H522 lung,2.97 µM
same,TGI,NCI-H522 lung,> 100 µM
same,GI50,NCI-H23 lung,5.67 µM
same,TGI,NCI-H23 lung,> 100 µM
same,GI50,SF-268 CNS,3.37 µM
same,TGI,SF-268 CNS,> 100 µM
NNC(=O)c1cnn(-c2ccnc3c(C(F)(F)F)cccc23)c1N,GI50,EKVX NSCLC,> 100 µM
same,TGI,EKVX NSCLC,> 100 µM
same,GI50,SN12C renal,> 100 µM
same,TGI,SN12C renal,> 100 µM
same,GI50,SF-295 CNS,> 100 µM
same,TGI,SF-295 CNS,> 100 µM
same,GI50,SNB-75 CNS,99.7 µM
same,TGI,SNB-75 CNS,> 100 µM
same,GI50,HS 578T breast,> 100 µM
same,TGI,HS 578T breast,> 100 µM
same,GI50,U251 CNS,> 100 µM
same,TGI,U251 CNS,> 100 µM
same,GI50,T-47D breast,> 100 µM
same,TGI,T-47D breast,> 100 µM
same,GI50,SK-OV-3 ovarian,> 100 µM
same,TGI,SK-OV-3 ovarian,> 100 µM
same,GI50,SNB-19 CNS,> 100 µM
same,TGI,SNB-19 CNS,> 100 µM
same,GI50,SW-620 colon,> 100 µM
same,TGI,SW-620 colon,> 100 µM
same,GI50,HL-60(TB) leukemia,> 100 µM
same,TGI,HL-60(TB) leukemia,> 100 µM
same,GI50,MDA-MB-435,> 100 µM
same,TGI,MDA-MB-435,> 100 µM
same,GI50,A549 NSCLC,> 100 µM
same,TGI,A549 NSCLC,> 100 µM
same,GI50,KM12 colon,> 100 µM
same,TGI,KM12 colon,> 100 µM
same,GI50,RXF 393 renal,> 100 µM
same,TGI,RXF 393 renal,> 100 µM
same,GI50,ACHN renal,> 100 µM
same,TGI,ACHN renal,> 100 µM
same,GI50,PC-3 prostate,> 100 µM
same,TGI,PC-3 prostate,> 100 µM
same,GI50,HCT-116 colon,> 100 µM
same,TGI,HCT-116 colon,> 100 µM
same,GI50,MOLT-4 leukemia,> 100 µM
same,TGI,MOLT-4 leukemia,> 100 µM
same,GI50,CCRF-CEM leukemia,> 100 µM
same,TGI,CCRF-CEM leukemia,> 100 µM
same,GI50,SF-539 CNS,> 100 µM
same,TGI,SF-539 CNS,> 100 µM
same,GI50,NCI-H226 lung,> 100 µM
same,TGI,NCI-H226 lung,> 100 µM
same,GI50,IGROV1 ovarian,> 100 µM
same,TGI,IGROV1 ovarian,> 100 µM
same,GI50,HOP-62 NSCLC,> 100 µM
same,TGI,HOP-62 NSCLC,> 100 µM
same,GI50,786-0 renal,> 100 µM
same,TGI,786-0 renal,> 100 µM
same,GI50,MDA-MB-231 breast,> 100 µM
same,TGI,MDA-MB-231 breast,> 100 µM
same,GI50,HT29 colon,> 100 µM
same,TGI,HT29 colon,> 100 µM
same,GI50,HCC-2998 colon,> 100 µM
same,TGI,HCC-2998 colon,> 100 µM
same,GI50,NCI-H460 lung,> 100 µM
same,TGI,NCI-H460 lung,> 100 µM
same,GI50,NCI-H522 lung,> 100 µM
same,TGI,NCI-H522 lung,> 100 µM
same,GI50,COLO 205 colon,> 100 µM
same,TGI,COLO 205 colon,> 100 µM
same,GI50,DU-145 prostate,> 100 µM
same,TGI,DU-145 prostate,> 100 µM
same,GI50,K-562 leukemia,> 100 µM
same,TGI,K-562 leukemia,> 100 µM
same,GI50,HCT-15 colon,> 100 µM
same,TGI,HCT-15 colon,> 100 µM
same,GI50,UACC-257 melanoma,> 100 µM
same,TGI,UACC-257 melanoma,> 100 µM
same,GI50,OVCAR-5 ovarian,> 100 µM
same,TGI,OVCAR-5 ovarian,> 100 µM
same,GI50,TK-10 renal,> 100 µM
same,TGI,TK-10 renal,> 100 µM
same,GI50,NCI-H23 lung,> 100 µM
same,TGI,NCI-H23 lung,> 100 µM
same,GI50,SK-MEL-2 melanoma,> 100 µM
same,TGI,SK-MEL-2 melanoma,> 100 µM
same,GI50,OVCAR-3 ovarian,> 100 µM
same,TGI,OVCAR-3 ovarian,> 100 µM
same,GI50,HOP-92 NSCLC,82.1 µM
same,TGI,HOP-92 NSCLC,> 100 µM
same,GI50,SK-MEL-5 melanoma,> 100 µM
same,TGI,SK-MEL-5 melanoma,> 100 µM
same,GI50,OVCAR-4 ovarian,> 100 µM
same,TGI,OVCAR-4 ovarian,> 100 µM
same,GI50,MCF7 breast,> 100 µM
same,TGI,MCF7 breast,> 100 µM
same,GI50,SK-MEL-28 melanoma,> 100 µM
same,TGI,SK-MEL-28 melanoma,> 100 µM
same,GI50,OVCAR-8 ovarian,> 100 µM
same,TGI,OVCAR-8 ovarian,> 100 µM
same,GI50,RPMI-8226 leukemia,> 100 µM
same,TGI,RPMI-8226 leukemia,> 100 µM
same,GI50,NCI/ADR-RES ovarian,> 100 µM
same,TGI,NCI/ADR-RES ovarian,> 100 µM
same,GI50,MALME-3M melanoma,> 100 µM
same,TGI,MALME-3M melanoma,> 100 µM
same,GI50,UACC-62 melanoma,> 100 µM
same,TGI,UACC-62 melanoma,> 100 µM
same,GI50,CAKI-1 renal,> 100 µM
same,TGI,CAKI-1 renal,> 100 µM
same,GI50,UO-31 renal,> 100 µM
same,TGI,UO-31 renal,> 100 µM
same,GI50,LOX IMVI melanoma,> 100 µM
same,TGI,LOX IMVI melanoma,> 100 µM
same,GI50,SF-268 CNS,> 100 µM
same,TGI,SF-268 CNS,> 100 µM
same,GI50,BT-549 breast,> 100 µM
same,TGI,BT-549 breast,> 100 µM
